Data reported in patent publication US9592300B2, “Methods of using redox-active surfactants to control polymer interactions” (WISCONSIN ALUMNI RESEARCH FOUNDATION, priority 2005, dated 2017).

How the values were obtained:
COS-7 cells [1] = details: oxidized at 500 mV, then reduced at −44 mV prior to contact with DNA
Method: Preparation of lipoplexes for Transfection Assays.
Cells were then incubated for 48 hours and cell morphology and relative levels of EGFP expression were characterized using phase contrast and fluorescence microscopy.
For these experiments, cells were incubated with lipoplexes for four hours in serum-free medium, followed by incubation in fresh serum-containing medium (see Materials and Methods Section for complete description of transfection procedures).

COS-7 cells [2] = details: four hours exposure, 10% fetal bovine serum

C[N+](C)(CCCCCCCCCCC[c-]1cccc1)CCCCCCCCCCC[c-]1cccc1.[Br-].[Fe+2].[Fe+2].c1cc[cH-]c1.c1cc[cH-]c1 [BFDMA, bis(11-ferrocenylundecyl)dimethylammonium bromide]
transfection activity following electrochemical cycling (EGFP expression) (COS-7 cells [1]): retains transfection activity
magnitude of gene expression in presence of serum relative to serum-free medium (COS-7 cells [2]): approximately one order of magnitude lower
